Patent US20140309265A1, “MACROCYCLIC COMPOUNDS FOR INHIBITION OF INHIBITORS OF APOPTOSIS” (Ensemble Therapeutics, priority 2011, published 2014)

Assays:
[1] = target: T1, His-BIR3 (241-356, XIAP) (Homo sapiens, UniProt P98170); assay: XIAP-BIR3/SMAC Homogeneous Time Resolved Fluorescence (HTRF) Assay; format: binding; settings: Table 4
T1 construct: additions of His-BIR3 (241-356, XIAP), fluorescein labeled SMAC peptide

[2] = target: T2, His-BIR2-3 (125-356, C202A/C213G, XIAP) (Homo sapiens, UniProt P98170, C202A/C213G); assay: XIAP-BIR2-3 Dimeric SMAC Peptide Homogeneous Time Resolved Fluorescence (HTRF) Assay; format: binding; settings: XIAP BIR2-3, HTRF, Table 4
T2 construct: additions of His-BIR2-3 (125-356, C202A/C213G, XIAP), fluorescein labeled dimeric SMAC peptide
T2 sequence (P98170 125-356 C202A/C213G): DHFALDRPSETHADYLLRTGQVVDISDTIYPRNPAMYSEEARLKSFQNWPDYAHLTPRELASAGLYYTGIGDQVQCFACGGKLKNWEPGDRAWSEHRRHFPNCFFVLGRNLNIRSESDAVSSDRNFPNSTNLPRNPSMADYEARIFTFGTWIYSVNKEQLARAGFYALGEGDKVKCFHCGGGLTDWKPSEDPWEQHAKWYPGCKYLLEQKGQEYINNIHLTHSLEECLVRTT

T1 sequence (P98170 241-356): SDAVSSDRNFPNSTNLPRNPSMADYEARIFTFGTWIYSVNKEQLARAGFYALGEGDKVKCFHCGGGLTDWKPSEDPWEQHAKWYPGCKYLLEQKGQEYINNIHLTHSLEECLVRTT

CN[C@@H](C)C(=O)N[C@H](C(=O)N1C[C@@H]2C[C@H]1C(=O)N[C@@H](Cc1ccc3ccccc3c1)C(=O)N[C@H](C(=O)O)Cc1ccc(cc1)OCc1cn(nn1)[C@H]1C[C@@H](C(=O)N[C@@H](Cc3ccc4ccccc4c3)C(=O)N[C@H](C(=O)OC)Cc3ccc(cc3)OCc3cn2nn3)N(C(=O)[C@@H](NC(=O)[C@H](C)NC)C(C)(C)C)C1)C(C)(C)C [Compound 1001]
IC50 [1]: > 0.1 µM | IC50 [2]: > 0.01 µM

CN[C@@H](C)C(=O)N[C@H](C(=O)N1C[C@@H]2C[C@H]1C(=O)N[C@@H](Cc1ccc3ccccc3c1)C(=O)N[C@H](C(=O)O)Cc1ccc(cc1)OCc1cn(nn1)[C@H]1C[C@@H](C(=O)N[C@@H](Cc3ccc4ccccc4c3)C(=O)N[C@H](C(=O)O)Cc3ccc(cc3)OCc3cn2nn3)N(C(=O)[C@@H](NC(=O)[C@H](C)NC)C23CC4CC(CC(C4)C2)C3)C1)C12CC3CC(CC(C3)C1)C2 [Compound 1008]
IC50 [1]: 0.01 to 0.1 µM | IC50 [2]: ≤ 0.001 µM

CN[C@@H](C)C(=O)N[C@H](C(=O)N1C[C@@H]2C[C@H]1C(=O)N[C@@H](Cc1ccc3ccccc3c1)C(=O)N[C@H](C(=O)O)Cc1ccc(cc1)OCc1cn(nn1)[C@H]1C[C@@H](C(=O)N[C@@H](Cc3ccc4ccccc4c3)C(=O)N[C@H](C(=O)O)Cc3ccc(cc3)OCc3cn2nn3)N(C(=O)[C@@H](NC(=O)[C@H](C)NC)C23CC4CC(CC(O)(C4)C2)C3)C1)C12CC3CC(CC(O)(C3)C1)C2 [Compound 1009]
IC50 [1]: < 0.01 µM | IC50 [2]: 0.001 to 0.01 µM

CN[C@@H](C)C(=O)N[C@H](C(=O)N1C[C@@H]2C[C@H]1C(=O)N[C@@H](Cc1ccc3ccccc3c1)C(=O)N[C@H](C(=O)O)Cc1ccc(cc1)OCCCc1cn(nn1)[C@H]1C[C@@H](C(=O)N[C@@H](Cc3ccc4ccccc4c3)C(=O)N[C@H](C(=O)O)Cc3ccc(cc3)OCCCc3cn2nn3)N(C(=O)[C@@H](NC(=O)[C@H](C)NC)C(C)(C)C)C1)C(C)(C)C [Compound 1011]
IC50 [1]: < 0.01 µM | IC50 [2]: 0.001 to 0.01 µM

CN[C@@H](C)C(=O)N[C@H](C(=O)N1C[C@@H]2C[C@H]1C(=O)N[C@@H](Cc1ccc3ccccc3c1)C(=O)N[C@H](C(=O)O)Cc1ccc(cc1)NC(=O)CCc1cn(nn1)[C@H]1C[C@@H](C(=O)N[C@@H](Cc3ccc4ccccc4c3)C(=O)N[C@H](C(=O)O)Cc3ccc(cc3)NC(=O)CCc3cn2nn3)N(C(=O)[C@@H](NC(=O)[C@H](C)NC)C(C)(C)C)C1)C(C)(C)C [Compound 1012]
IC50 [1]: < 0.01 µM | IC50 [2]: 0.001 to 0.01 µM

CNC(C)C(=O)NC(C(=O)N1CC2CC1C(=O)NC(Cc1ccc3ccccc3c1)C(=O)NC(C(=O)O)Cc1ccc(cc1)OCc1cn(nn1)C1CC(C(=O)NC(Cc3ccc4ccccc4c3)C(=O)NC(C(=O)O)c3ccc(cc3)OCc3cn2nn3)N(C(=O)C(NC(=O)C(C)NC)C(C)(C)C)C1)C(C)(C)C (stereo not drawn) [Compound 1013]
IC50 [1]: < 0.01 µM | IC50 [2]: ≤ 0.001 µM

CN[C@@H](C)C(=O)N[C@H](C(=O)N1C[C@@H]2C[C@H]1C(=O)N[C@@H](Cc1ccc3ccccc3c1)C(=O)N[C@H](C(=O)O)Cc1ccc(cc1)NC(=O)c1cn(nn1)[C@H]1C[C@@H](C(=O)N[C@@H](Cc3ccc4ccccc4c3)C(=O)N[C@H](C(=O)O)Cc3ccc(cc3)OCc3cn2nn3)N(C(=O)[C@@H](NC(=O)[C@H](C)NC)C(C)(C)C)C1)C(C)(C)C [Compound 1014]
IC50 [1]: < 0.01 µM | IC50 [2]: ≤ 0.001 µM

CN[C@@H](C)C(=O)N[C@H](C(=O)N1C[C@@H]2C[C@H]1C(=O)N[C@@H](Cc1ccc3ccccc3c1)C(=O)N[C@H](C(=O)O)Cc1ccc(cc1)-c1cn(nn1)[C@H]1C[C@@H](C(=O)N[C@@H](Cc3ccc4ccccc4c3)C(=O)N[C@H](C(=O)O)Cc3ccc(cc3)OCc3cn2nn3)N(C(=O)[C@@H](NC(=O)[C@H](C)NC)C(C)(C)C)C1)C(C)(C)C [Compound 1015]
IC50 [1]: 0.01 to 0.1 µM | IC50 [2]: 0.001 to 0.01 µM

CN[C@@H](C)C(=O)N[C@H](C(=O)N1C[C@@H]2C[C@H]1C(=O)N[C@@H](Cc1ccc3ccccc3c1)C(=O)N[C@H](C(=O)O)Cc1ccc(cc1)OCc1cn(nn1)[C@H]1C[C@@H](C(=O)N[C@@H](Cc3ccc4ccccc4c3)C(=O)N[C@H](C(=O)O)Cc3ccc(cc3)NC(=O)CCc3cn2nn3)N(C(=O)[C@@H](NC(=O)[C@H](C)NC)C(C)(C)C)C1)C(C)(C)C [Compound 1016]
IC50 [1]: < 0.01 µM | IC50 [2]: ≤ 0.001 µM

CN[C@@H](C)C(=O)N[C@H](C(=O)N1C[C@@H]2C[C@H]1C(=O)N[C@@H](Cc1ccc3ccccc3c1)C(=O)N[C@H](C(=O)O)Cc1ccc(cc1)OCc1cn(nn1)[C@H]1C[C@@H](C(=O)N[C@@H](Cc3ccc4ccccc4c3)C(=O)N[C@H](C(=O)O)Cc3ccc(cc3)OCCc3cn2nn3)N(C(=O)[C@@H](NC(=O)[C@H](C)NC)C(C)(C)C)C1)C(C)(C)C [Compound 1017]
IC50 [1]: < 0.01 µM | IC50 [2]: ≤ 0.001 µM

CN[C@@H](C)C(=O)N[C@H](C(=O)N1C[C@@H]2C[C@H]1C(=O)N[C@@H](Cc1ccc3ccccc3c1)C(=O)N[C@H](C(=O)O)Cc1ccc(cc1)OCc1cn(nn1)[C@H]1C[C@@H](C(=O)N[C@@H](Cc3ccc4ccccc4c3)C(=O)N[C@H](C(=O)NCC(=O)O)Cc3ccc(cc3)OCc3cn2nn3)N(C(=O)[C@@H](NC(=O)[C@H](C)NC)C(C)(C)C)C1)C(C)(C)C [Compound 1018]
IC50 [1]: < 0.01 µM | IC50 [2]: 0.001 to 0.01 µM

CN[C@@H](C)C(=O)N[C@H](C(=O)N1C[C@@H]2C[C@H]1C(=O)N[C@@H](Cc1ccc3ccccc3c1)C(=O)N[C@H](C(=O)O)Cc1ccc(cc1)OCc1cn(nn1)[C@H]1C[C@@H](C(=O)N[C@@H](Cc3ccc4ccccc4c3)C(=O)N[C@H](C(=O)NCCC(=O)O)Cc3ccc(cc3)OCc3cn2nn3)N(C(=O)[C@@H](NC(=O)[C@H](C)NC)C(C)(C)C)C1)C(C)(C)C [Compound 1019]
IC50 [1]: < 0.01 µM | IC50 [2]: 0.001 to 0.01 µM

CN[C@@H](C)C(=O)N[C@H](C(=O)N1C[C@@H]2C[C@H]1C(=O)N[C@@H](Cc1ccc3ccccc3c1)C(=O)N[C@H](C(=O)O)Cc1ccc(cc1)OCc1cn(nn1)[C@H]1C[C@@H](C(=O)N[C@@H](Cc3ccc4ccccc4c3)C(=O)N[C@H](C(=O)N(C)CC(=O)O)Cc3ccc(cc3)OCc3cn2nn3)N(C(=O)[C@@H](NC(=O)[C@H](C)NC)C(C)(C)C)C1)C(C)(C)C [Compound 1020]
IC50 [1]: 0.01 to 0.1 µM | IC50 [2]: 0.001 to 0.01 µM

CN[C@@H](C)C(=O)N[C@H](C(=O)N1C[C@@H]2C[C@H]1C(=O)N[C@@H](Cc1ccc3ccccc3c1)C(=O)N[C@H](C(=O)O)Cc1ccc(cc1)OCc1cn(nn1)[C@H]1C[C@@H](C(=O)N[C@@H](Cc3ccc4ccccc4c3)C(=O)N[C@H](C(=O)N3CCC(C(=O)O)C3)Cc3ccc(cc3)OCc3cn2nn3)N(C(=O)[C@@H](NC(=O)[C@H](C)NC)C(C)(C)C)C1)C(C)(C)C (stereo partly drawn) [Compound 1021]
IC50 [1]: < 0.01 µM | IC50 [2]: 0.001 to 0.01 µM

CN[C@@H](C)C(=O)N[C@H](C(=O)N1C[C@@H]2C[C@H]1C(=O)N[C@@H](Cc1ccc3ccccc3c1)C(=O)N[C@H](C(=O)O)Cc1ccc(cc1)OCc1cn(nn1)[C@H]1C[C@@H](C(=O)N[C@@H](Cc3ccc4ccccc4c3)C(=O)N[C@H](C(=O)NCc3nnn[nH]3)Cc3ccc(cc3)OCc3cn2nn3)N(C(=O)[C@@H](NC(=O)[C@H](C)NC)C(C)(C)C)C1)C(C)(C)C [Compound 1022]
IC50 [1]: < 0.01 µM | IC50 [2]: 0.001 to 0.01 µM

CN[C@@H](C)C(=O)N[C@H](C(=O)N1C[C@@H]2C[C@H]1C(=O)N[C@@H](Cc1ccc3ccccc3c1)C(=O)N[C@H](C(=O)O)Cc1ccc(cc1)OCc1cn(nn1)[C@H]1C[C@@H](C(=O)N[C@@H](Cc3ccc4ccccc4c3)C(=O)N[C@H](C(=O)NCc3ccc(-c4nnn[nH]4)cc3)Cc3ccc(cc3)OCc3cn2nn3)N(C(=O)[C@@H](NC(=O)[C@H](C)NC)C(C)(C)C)C1)C(C)(C)C [Compound 1023]
IC50 [1]: < 0.01 µM | IC50 [2]: 0.001 to 0.01 µM

CN[C@@H](C)C(=O)N[C@H](C(=O)N1C[C@@H]2C[C@H]1C(=O)N[C@@H](Cc1ccc3ccccc3c1)C(=O)N[C@H](C(=O)O)Cc1ccc(cc1)OCc1cn(nn1)[C@H]1C[C@@H](C(=O)N[C@@H](Cc3ccc4ccccc4c3)C(=O)N[C@H](C(=O)N(C)C)Cc3ccc(cc3)OCc3cn2nn3)N(C(=O)[C@@H](NC(=O)[C@H](C)NC)C(C)(C)C)C1)C(C)(C)C [Compound 1024]
IC50 [1]: < 0.01 µM | IC50 [2]: 0.001 to 0.01 µM

CN[C@@H](C)C(=O)N[C@H](C(=O)N1C[C@@H]2C[C@H]1C(=O)N[C@@H](Cc1ccc3ccccc3c1)C(=O)N[C@H](C(=O)O)Cc1ccc(cc1)OCc1cn(nn1)[C@H]1C[C@@H](C(=O)N[C@@H](Cc3ccc4ccccc4c3)C(=O)N[C@H](C(=O)NCc3cccc(-c4nnn[nH]4)c3)Cc3ccc(cc3)OCc3cn2nn3)N(C(=O)[C@@H](NC(=O)[C@H](C)NC)C(C)(C)C)C1)C(C)(C)C [Compound 1025]
IC50 [1]: < 0.01 µM | IC50 [2]: 0.001 to 0.01 µM

CN[C@@H](C)C(=O)N[C@H](C(=O)N1C[C@@H]2C[C@H]1C(=O)N[C@@H](Cc1ccc3ccccc3c1)C(=O)N[C@H](C(=O)O)Cc1ccc(cc1)OCc1cn(nn1)[C@H]1C[C@@H](C(=O)N[C@@H](Cc3ccc4ccccc4c3)C(=O)N[C@H](C(=O)N3CC(C(=O)O)C3)Cc3ccc(cc3)OCc3cn2nn3)N(C(=O)[C@@H](NC(=O)[C@H](C)NC)C(C)(C)C)C1)C(C)(C)C [Compound 1026]
IC50 [1]: 0.01 to 0.1 µM | IC50 [2]: 0.001 to 0.01 µM

CN[C@@H](C)C(=O)N[C@H](C(=O)N1CCN2CCn3cc(nn3)C[C@@H](C(=O)O)NC(=O)[C@H](Cc3ccc4ccccc4c3)NC(=O)[C@@H]3CN(CCN3C(=O)[C@@H](NC(=O)[C@H](C)NC)C(C)(C)C)CCn3cc(nn3)C[C@@H](C(=O)O)NC(=O)[C@H](Cc3ccc4ccccc4c3)NC(=O)[C@@H]1C2)C(C)(C)C [Compound 1050]
IC50 [2]: > 0.01 µM
